Entries after “also recorded” stand apart in the source; their conditions may differ.
Key:
[1] = system: human fetal brain-derived neural stem cells (hNSC); test: hNSC growth on ephrin-ligand repulsive substrates; assay type: cell-based; settings: 500 nM, 5-day culture, over control cultures
Protocol: Fetal brain-derived neural stem cells (hNSC): In order to evaluate the effect of xEFN peptides on human neuronal cells, StemPro hNSC were purchased from ThermoFisher Scientific (Cat. no. A15654) and cultured according to the manufacturer's recommended protocol. Briefly, cells were grown in non-adherent neurosphere suspension cultures in StemPro NSC serum-free media (NSC-SFM) (Cat. no. A10509-01) supplemented with 2 mM GlutaMAX-I supplement, 6 U/mL heparin, and 200 μM ascorbic acid (Sigma-Aldrich, Cat. no. A8960). Culture media was changed every 2 days and cells were passaged every 7 days as undifferentiated hNSC. To induce differentiation into neuronal cells, hNSC neurospheres were dissociated into single-cell suspensions using StemPro Accutase for 5 minutes at 37° C. followed by mechanical pipetting. hNSC were then plated onto Geltrex-coated culture vessels at a concentration of 2×10^4 cells/cm^2 in neuronal differentiation media consisting of NSC media without bFGF or EGF and supplemented with B-27 supplement (ThermoFisher Scientific) for 3 days prior to performing further in vitro assays.
Glial-bound efn ligands have been associated with mediating the major repulsive milieu for neuronal process in the CNS. […] Moreover, assays on the repulsive nature of efn ligand-presenting surfaces have been a mainstay in axonal guidance studies for many decade. The use of xEFN peptides to antagonize this repulsive signaling from efn ligand substrates was evaluated on human fetal brain-derived neural stem cells (hNSC).
Recombinant Efn ligands (A2, A4, and B3) containing a His-Tag were purchased from R&D Systems, and were pre-clustered using an anti-His antibody (Genetex) for 30 min. The pre-clustered Efn ligands, or anti-his antibody alone, (control) were then mixed with laminin from human placenta (Sigma-Aldrich) in suspension and used to coat the growth surface of a 24-well plate. […] The entire wells were then scanned using an EVOS FL Auto fluorescent microscope and the images were analyzed in the ImageJ software to calculate cell coverage area.

isolated mouse RGCs [2] = test: Neurite sprouting and extension assay, short-term (48 h); assay type: cell-based
Protocol: (§1) Mouse retinal ganglion cells (RGC): Mouse R GCs were isolated as follows. Briefly, retinas from postnatal day 8-10 (p8-10) mouse pups were dissected and digested using a papain solution (16.5 U/mL) for 30 minutes at 37° C. Following dissociation, macrophage and endothelial cells were removed from the cell suspension by panning with the anti-macrophage antiserum (Accurate Chemical, Westbury, NY). Finally, RGCs were immunopanned in plates containing the antibody against Thy1.2 and were then released by incubation with trypsin solution. RGCs were grown on poly-L-lysine coated plates in serum-free Neurobasal media (Invitrogen, Carlsbad, CA), supplemented with B-27 supplement, CNTF (10 ng/ml), and BDNF (10 ng/ml).
(§2) mRGCs were used to analyze dendrite sprouting, axonal polarization and extension, and ephrin receptor phosphorylation following treatment with xEFN peptides. RGCs were isolated as described above and plated onto 24 well plates at a concentration of 4×10^4 cells/well for short-term (48 h) experiments, or into 96-well plates at a concentration of 1,000 cells/well for long-term (6 days) experiments in an Incucyte Zoom (Essen Biosciences) instrument for live cell imaging. […] For the short-tem experiment, cells were fixed in 4% paraformaldehyde for 5 minutes, permeabilized using 0.05% Triton X-100, blocked with 5% fetal bovine serum, and incubated with primary antibody against Tubulin Beta 3 Class III (TUBB3) overnight at 4° C. Cells were then washed 3×5 min with PBS and incubated with AlexaFluor488 secondary antibody for 2 h at room temperature. Cells were mounted using SlowFade Gold Antifade mounting media with DAPI (ThermoFisher) and imaged using an EVOS FL automated fluorescent microscope (ThermoFisher). Dendrite measurements and analysis was performed by a blinded investigator using ImageJ software and the Sholl analysis plugin. […] Neurite sprouting and extension were quantified using the automated Incucyte Zoom NeuroTrack Processing algorithm for real-time, label-free neurite segmentation and quantitation (FIG. 13).

phosphorylated Rac1 = test: Western blot of phosphorylated Rac1 in mRGCs; assay type: cell-based, mouse; settings: 500 nM
Protocol: (§3) On day 4, cells were treated with pre-clustered recombinant mouse EfnA5-His ligand [(+) Control, using anti-His_Tag antibody for 30 minutes] for 2 hours. Cells were then lysed in RIPA buffer containing protease and phosphatase inhibitor cocktails and maintained on ice. Protein was quantified using a BCA assay, and 10 μg of total protein was run on a TGX stain-free Any kD gel (BioRad) and transferred using the trans-blot turbo system (BioRad). Following transfer and blocking in 5% nonfat milk for 1 h, blots were probed with antibodies against RhoA, phosphorylated Rac1, ARHGEF15, Ephexin-1, or beta-actin as an endogenous loading control overnight at 4° C. Blots were then washed 3×5 min in PBS-T and incubated in the appropriate HRP-conjugated secondary antibody for 2 h at room temperature. Blots were imaged using chemiluminescent ECL substrate (Pierce) on a BioRad ChemiDoc MP imaging system and software.

EphA2 = target: T1, EphA2 (Mus musculus, UniProt Q03145); test: Western blot of EphA2 expression in isolated mouse RGCs; assay type: cell-based; settings: 1 μM, 4 days
T1 construct: endogenous in cells; host or cells: primary mouse retinal ganglion cells (p8-10 pups)
T1 sequence (Q03145 26-977): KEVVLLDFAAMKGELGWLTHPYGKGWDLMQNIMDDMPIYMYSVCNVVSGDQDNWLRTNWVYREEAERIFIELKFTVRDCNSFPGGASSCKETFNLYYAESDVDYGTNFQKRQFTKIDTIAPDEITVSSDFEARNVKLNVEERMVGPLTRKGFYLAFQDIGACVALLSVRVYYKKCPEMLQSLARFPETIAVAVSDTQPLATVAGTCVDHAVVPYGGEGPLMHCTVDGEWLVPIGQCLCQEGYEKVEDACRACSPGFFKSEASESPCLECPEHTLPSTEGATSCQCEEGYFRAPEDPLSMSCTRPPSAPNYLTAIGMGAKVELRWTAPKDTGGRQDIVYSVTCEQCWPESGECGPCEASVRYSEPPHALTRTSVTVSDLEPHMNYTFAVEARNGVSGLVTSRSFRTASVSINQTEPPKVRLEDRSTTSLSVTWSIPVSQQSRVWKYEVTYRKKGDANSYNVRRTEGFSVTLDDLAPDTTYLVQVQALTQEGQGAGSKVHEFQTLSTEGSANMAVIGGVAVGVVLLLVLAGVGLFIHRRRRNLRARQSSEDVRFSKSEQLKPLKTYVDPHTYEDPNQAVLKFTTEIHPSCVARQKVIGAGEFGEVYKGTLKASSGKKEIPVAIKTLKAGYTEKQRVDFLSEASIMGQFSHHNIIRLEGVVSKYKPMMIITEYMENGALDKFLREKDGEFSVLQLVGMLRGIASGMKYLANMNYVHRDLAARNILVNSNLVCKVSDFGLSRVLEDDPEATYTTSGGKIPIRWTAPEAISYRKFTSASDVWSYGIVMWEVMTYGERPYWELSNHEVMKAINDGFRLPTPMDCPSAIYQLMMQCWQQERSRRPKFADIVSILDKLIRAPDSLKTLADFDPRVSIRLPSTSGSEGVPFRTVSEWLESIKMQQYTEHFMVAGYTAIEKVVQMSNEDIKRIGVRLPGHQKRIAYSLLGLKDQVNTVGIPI
Excerpt: (§4) In order to assess the effect of xEFN peptide supplementation on Eph-receptor modulation, various in vitro assays were employed on isolated mouse RGCs. […] Similarly, xEFN_RBD1, and 3 inhibited the phosphorylation of Rac1 by pre-clustered ephirnA5 ligand stimulation. […] TUBB3 is a marker specific for neuronal microtubules and functions as a neuronal-specific marker.

isolated mouse RGCs [3] = test: Neurite outgrowth, long-term (6 days), Incucyte Zoom live cell imaging; assay type: cell-based
Protocol: as §1, with “Briefly, retinas from postnatal day 8-10 (p8-10) mouse pups were dissected and digested using a papain solution (16.5 U/mL) for 30 minutes at 37° C.” left out
as §2

isolated mouse RGCs [4] = test: Immunofluorescent staining of TUBB3 and F-actin in isolated mouse RGCs; assay type: cell-based; settings: 1 μM, 4 days
Excerpt: as §4

RhoA = test: Western blot of RhoA in mRGCs; assay type: cell-based, mouse; settings: 500 nM
Protocol: as §3

[5] = supplemented RGC cultures, 48 h

## FTIKFQEFSPNLWGL [xEFN_RBD3]
[1]
  confluence coverage on efnA2 substrate: 120.62+/−10.89%
  confluence coverage on efnA4 substrate: 125.83+/−2.92%
  confluence coverage on efnB3 substrate: 96.51+/−7.15%
Isolated mouse RGCs [2]; 500 nM, 48 h of culture, compared to vehicle (PBS) treated controls
  average axonal length: 302.16+/−40.24%
Isolated mouse RGCs [2]; isolated RGCs
  axonal extension: significantly increases
  dendritic arbor complexity: significantly increases
  neurite sprouting: significantly increases
Isolated mouse RGCs [2]; [5]
  average neurites/RGC soma: 3.43+/−0.16 neurites/RGC
  median total neurite length: 1034.68 (range: 486.26-2759.84) μm/cell
Phosphorylated Rac1
  phosphorylation of Rac1 by pre-clustered ephrinA5 ligand stimulation: inhibited
EphA2
  expression of EphA2 (western blot): reduced expression; also recorded: effectively decreased expression
Isolated mouse RGCs [3]; 1 μM, 6-day period
  neurite outgrowth compared to 1 μM xEFN_F1 peptide: significantly increased
Isolated mouse RGCs [3]; 1 μM, after 32 hours of culture
  neurite length over control cultures: statistically-significant increase
Isolated mouse RGCs [3]; 1 μM, end of 6-day period
  increase in overall neurite length over day 0 measurement: 424.68+/−4.47%
Isolated mouse RGCs [3]; equal concentrations
  neurite outgrowth compared to EphB2- or EphB4-restricted targeting peptides SNEW and TYFD: statistically significant increase
Isolated mouse RGCs [4]
  neuroprotection seen by TUBB3 expression versus control in vitro cultures: neuroprotection; also recorded: effectively preserved RGCs
RhoA
  expression of the GTPase RhoA: downregulates

Source: US20250042968A1, “EPHRIN LIGAND MIMETIC PEPTIDES FOR THE TREATMENT OF NEURODEGENERATIVE DISEASES” (University of Miami, priority 2022, published 2025)
